# Laboratory results published in ChEMBL document CHEMBL4014328, “Piperazin-1-ylpyridazine Derivatives Are a Novel Class of Human dCTP Pyrophosphatase 1 Inhibitors” (J Med Chem, 2017).
# Tests used:
# Stearoyl-CoA desaturase = target: T1, Stearoyl-CoA desaturase (Homo sapiens, UniProt O00767)
# T1 sequence (O00767 whole entry): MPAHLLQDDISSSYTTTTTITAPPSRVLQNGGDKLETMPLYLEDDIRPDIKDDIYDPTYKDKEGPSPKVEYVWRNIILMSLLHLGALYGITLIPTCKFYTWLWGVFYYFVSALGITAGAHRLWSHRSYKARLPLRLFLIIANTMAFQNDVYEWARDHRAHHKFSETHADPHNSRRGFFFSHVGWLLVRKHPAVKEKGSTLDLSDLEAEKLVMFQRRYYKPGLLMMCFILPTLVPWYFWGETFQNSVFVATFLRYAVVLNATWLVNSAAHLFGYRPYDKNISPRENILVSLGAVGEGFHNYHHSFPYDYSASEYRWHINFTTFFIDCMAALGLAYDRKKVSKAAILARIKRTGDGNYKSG
# Description: Inhibition of SCD1 in human HepG2 cells assessed as ratio of cellular protein product over substrate after 72 hrs
# dCTP pyrophosphatase 1 = target: T2, dCTP pyrophosphatase 1 (Homo sapiens, UniProt Q9H773)
# T2 sequence (Q9H773 whole entry): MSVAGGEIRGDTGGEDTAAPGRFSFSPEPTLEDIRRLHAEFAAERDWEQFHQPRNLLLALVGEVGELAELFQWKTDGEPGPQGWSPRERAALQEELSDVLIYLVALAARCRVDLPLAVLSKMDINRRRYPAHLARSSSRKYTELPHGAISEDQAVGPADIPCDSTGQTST
# Description: Inhibition of human full length N-terminal His-tagged dCTPase expressed in Escherichia coli BL21(DE3) using dCTP as substrate by HTS-based malachite green assay
# [1] = Drug uptake in human MCF7 cells up to 20 uM; assay type: ADME, cell-based
# [2] = Drug uptake in human HL60 cells at 10 uM; assay type: ADME, cell-based; conditions: hl-60, 10 µM
# HL-60 = experiment: Synergistic cytotoxicity against human HL60 cells assessed as reduction in cell viability after 72 hrs in presence of 5-AzaC by Resazurin assay; assay type: functional
# hTERT-BJ = experiment: Cytotoxicity against human hTERT-BJ cells assessed as reduction in cell viability after 72 hrs by Resazurin assay; assay type: cell-based
structure (smiles),measurement,setting,value
Cc1nnc(-c2ccc(N3CCC(Oc4cc(F)ccc4Cl)CC3)nn2)o1,IC50,Stearoyl-CoA desaturase,0.67 µM
O=C(Nc1ccccc1)c1ccc(N2CCN(C(=O)c3ccccc3C(F)(F)F)CC2)nn1,IC50,dCTP pyrophosphatase 1,> 10 µM
O=C(NCc1ccccc1)c1ccc(N2CCN(C(=O)c3ccccc3C(F)(F)F)CC2)nn1,IC50,dCTP pyrophosphatase 1,0.24 µM
C#CCNC(=O)c1ccc(N2CCN(S(=O)(=O)c3cccc(Cl)c3C)CC2)nn1,IC50,dCTP pyrophosphatase 1,0.034 µM
Cc1ccccc1S(=O)(=O)N1CCN(c2ccc(C(=O)NCc3ccc(F)cc3)nn2)CC1,IC50,dCTP pyrophosphatase 1,0.065 µM
same,Drug uptake,[1],> 50%
same,Drug uptake,[2],> 50%
Cc1ccccc1S(=O)(=O)N1CC2CC1CN2c1ccc(C(=O)NCc2ccccc2)nn1 (stereo not given),IC50,dCTP pyrophosphatase 1,1.7 µM
Cc1ccccc1S(=O)(=O)N1CCN(c2ccc(S(=O)(=O)CCc3ccccc3)nn2)CC1,IC50,dCTP pyrophosphatase 1,> 10 µM
Cc1ccccc1S(=O)(=O)N1CCN(c2ccc(C(=O)NCc3ccccc3)nn2)CC1,CI,HL-60,<1
same,IC50,dCTP pyrophosphatase 1,0.17 µM
same,Activity,hTERT-BJ,Non-Toxic
same,IC50,Stearoyl-CoA desaturase,19.7 µM
O=C(NCc1ccccc1)c1ccc(N2CCN(S(=O)(=O)c3ccccc3F)CC2)nn1,IC50,dCTP pyrophosphatase 1,0.35 µM
Cc1ccccc1[S+]([O-])C1CCN(c2ccc(C(=O)NCc3ccccc3)nn2)CC1 (stereo not given),IC50,dCTP pyrophosphatase 1,1.1 µM
Cc1c(Cl)cccc1S(=O)(=O)N1CCN(c2ccc(C(=O)NCc3cccs3)nn2)CC1,CI,HL-60,<1
same,IC50,dCTP pyrophosphatase 1,0.019 µM
Cc1ccccc1S(=O)(=O)N1CCCN(c2ccc(C(=O)NCc3ccccc3)nn2)CC1,IC50,dCTP pyrophosphatase 1,3.2 µM
Cc1ncccc1S(=O)(=O)N1CCN(c2ccc(C(=O)NCc3ccc(F)cc3)nn2)CC1,IC50,dCTP pyrophosphatase 1,0.036 µM
same,Drug uptake,[1],> 50%
same,Drug uptake,[2],> 50%
same,Activity,hTERT-BJ,Non-Toxic
C=C(CCc1ccc(F)cc1)c1ccc(N2CCN(S(=O)(=O)c3ccccc3C)CC2)nn1,IC50,dCTP pyrophosphatase 1,> 10 µM
O=C(NCc1ccccc1)c1ccc(N2CCN(S(=O)(=O)c3ccccc3N3CCC(O)CC3)CC2)nn1,IC50,dCTP pyrophosphatase 1,0.26 µM
O=C(NCc1ccc(F)cc1)c1ccc(N2CCN(S(=O)(=O)c3cccnc3Cl)CC2)nn1,IC50,dCTP pyrophosphatase 1,0.025 µM
Cc1ccccc1S(=O)(=O)C1CCN(c2ccc(C(=O)NCc3ccccc3)nn2)CC1,IC50,dCTP pyrophosphatase 1,0.53 µM
Cc1ccccc1S(=O)(=O)N1CCN(c2ccc(C3(CCc4ccc(F)cc4)COC3)nn2)CC1,IC50,dCTP pyrophosphatase 1,> 10 µM
O=C(NCc1ccccc1)c1ccc(N2CCN(S(=O)(=O)c3ccccc3C(F)(F)F)CC2)nn1,IC50,dCTP pyrophosphatase 1,0.25 µM
CN(C)c1ccccc1S(=O)(=O)N1CCN(c2ccc(C(=O)NCc3ccccc3)nn2)CC1,IC50,dCTP pyrophosphatase 1,0.502 µM
C#CCOC(=O)c1ccc(N2CCN(S(=O)(=O)c3ccccc3N3CCC(O)CC3)CC2)nn1,IC50,dCTP pyrophosphatase 1,0.041 µM
same,Drug uptake,[1],> 50%
same,Drug uptake,[2],> 50%
same,Activity,hTERT-BJ,Non-Toxic
Cc1ccccc1S(=O)(=O)N1CCN(c2ccc(C(=O)CCc3ccc(F)cc3)nn2)CC1,IC50,dCTP pyrophosphatase 1,0.258 µM
Cc1ccccc1S(=O)(=O)N1CCN(c2ccc(C(=O)NCc3cccs3)nn2)CC1,CI,HL-60,<1
same,IC50,dCTP pyrophosphatase 1,0.051 µM
Cc1ccccc1S(=O)(=O)N1CCN(c2ccc(CNCc3ccccc3)nn2)CC1,IC50,dCTP pyrophosphatase 1,> 10 µM
Cc1ccccc1S(=O)(=O)N1CCN(c2ccc(C(=O)OCc3ccccc3)nn2)CC1,IC50,dCTP pyrophosphatase 1,0.038 µM
Cc1ccccc1S(=O)(=O)N1CCN(c2ccc(C(CO)(CO)CCc3ccc(F)cc3)nn2)CC1,IC50,dCTP pyrophosphatase 1,> 10 µM
O=C(NCCc1ccccc1)c1ccc(N2CCN(C(=O)c3ccccc3C(F)(F)F)CC2)nn1,IC50,dCTP pyrophosphatase 1,2.8 µM
